Key:
[1] = tested on: various tumor cells; experiment: Vacuolation by S2, summary over tumor cells (FIG. 2); format: cell-based
Protocol: (§1) U87MG, T98G, U251, SK-N-SH, A-172 and HepG2 cells were adherently cultured in MEM+10% FBS+1% P/S medium and passaged at 1:3; CT26.WT cells were adherently cultured in RPMI-1640+10% FBS+1% P/S medium and passaged at 1:3; CHO-K1 was cultured adherently in Ham's F-12K+10% FBS+[…] medium and passaged at 1:3.
(§2) The cells used above were resuscitated and passaged twice stably. When the cell density reached above 85%, the cells were digested with 0.05% trypsin-EDTA for 3 minutes, resuspended with the culture medium, and plated into a 6-well plate at a certain density, with each well system being 2 mL. The cells were cultured for 24 hours, added with 2 μL of the above-prepared S2 solution (final DMSO concentration 0.1%) to each well according to the grouping, such that the S2 concentration in the cell culture system reached 30 μM.
(§3) After 6 hours of drug treatment, the plate was observed under a microscope with a 20× objective lens, and five fields of view were randomly selected for each well to take photos and record. […]

[2] = tested on: U87MG-Luc glioblastoma cell in situ transplantation tumor; experiment: S2 in U87MG-Luc glioblastoma in situ transplantation tumor model in nude mice (Example 4); format: in vivo, BALB/c nude mice; conditions: for Overall survival period: vehicle 31; for Median survival period: vehicle 31.5
Protocol: Before the transplantation, the U87MG-Luc cells were digested with 0.05%-trypsin-EDTA, resuspended with pre-cooled PBS to 4×10^7 cells/mL, and transferred to ice for later use. The nude mice were anesthetized with isoflurane gas, and then fixed on a stereotaxic machine in a prone position. The scalp of the nude mouse was disinfected with iodophor, and incised sagittally with a scalpel. The incision was cleaned with iodophor. The skull was exposed, and drilled with a skull drill extending 1.0 mm in front of the bregma and deviating the right side 2.0 mm. 5 μL of cell suspension (2×10^5 cells) was manually injected with a 10 μL flat-head microsyringe, with inserting the needle to a depth of 3.5 mm, withdrawing the needle 0.5 mm, and injecting for about 10 minutes. After stopping the injection for 5 minutes, the needle was slowly removed, and the incision was sterilized and sutured. Finally 50,000 units of penicillin was injected intramuscularly to prevent infection.
On days 4, 12, 18, and 25 after the transplantation, 200 μL of 15 mg/mL D-luciferin potassium salt solution, which was filtered and sterilized through a 0.22 μm filter, was injected intraperitoneally. After 10 minutes, IVI chemiluminescence detection (bright field+bioluminescence imaging) was performed using the mouse in vivo imaging system (PE company IVIS Lumina XR). Luorescence intensity was analyzed using Living Image software to obtain fluorescence intensity [p/s], which reflected the size of tumor tissue in the brain of experimental animals.
The survival conditions of experimental animals were monitored, and the animals' death dates were recorded timely.
Quantitative data are expressed as mean±standard error. Each pharmacodynamic index was plotted using GraphPad Prism (8.0.1) software, differences between groups were tested by one-way ANOVA or two-way repeat ANOVA, followed by Fisher's LSD test, and survival analysis was performed by Kaplan-Meier. P<0.05 was defined as a significant difference.

[3] = tested on: CT26.WT; experiment: Cell viability assay (Example 2); format: cell-based; conditions: Mus musculus, 48 hours
Protocol: as §1
(§4) The above various cells were resuscitated and stably passaged twice. When the cell density reached above 85%, the cells were digested with 0.05% trypsin-EDTA for three minutes, resuspended, plated in a 96-well plate at the corresponding density, and cultured for 24 hours. The cells were treated with drugs at final concentrations of the culture system of 0.41 μM, 1.23 μM, 3.7 μM, 11.1 μM, 33.3 μM, and 100 μM. After 48 hours of drug treatment, cell viability was determined using CellCounting-Lite™ 2.0 kit. The plate was added with reagents at 100 µL/well according to the CellCounting-Lite™ 2.0 kit instructions, and shaken for 10 minutes. The luminescence value (LUM) was read on a multi-function plate reader, and the relative viability of the cells was calculated.
(§5) Relative viability of tumor cells V (%)=(LUM-LUMbackground)/(LUMnormal control−LUMbackground)×100%. LUMbackground was the background reading of the complete culture medium well added with the detection reagent. The half inhibitory concentration (IC50) was calculated using GraphPad Prism 8.0.1 statistical software.

[4] = tested on: HepG2; experiment: Cell viability assay (Example 2); format: cell-based; conditions: Homo sapiens; HepG2, 48 hours
Protocol: as §1, §4, §5

[5] = tested on: T98G; experiment: Cell viability assay (Example 2); format: cell-based; conditions: Homo sapiens, 48 hours
Protocol: as §1, §4, §5

[6] = tested on: U87MG; experiment: Cell viability assay (Example 2); format: cell-based; conditions: Homo sapiens, U-87 MG, 48 hours
Protocol: as §1, §4, §5

[7] = tested on: U251; experiment: Cell viability assay (Example 2); format: cell-based; conditions: Homo sapiens, U-251; U251, 48 hours
Protocol: as §1, §4, §5

[8] = tested on: A172; experiment: Cell viability assay (Example 2); format: cell-based; conditions: Homo sapiens, A 172; A172, 48 hours
Protocol: as §1, §4, §5

[9] = tested on: SK-N-SH; experiment: Cell viability assay (Example 2); format: cell-based; conditions: Homo sapiens, 48 hours
Protocol: as §1, §4, §5

[10] = tested on: CT26.WT; experiment: Vacuolation phenotype by S2 (Example 2); format: cell-based, mouse; conditions: 30 μM, 6 hours
Protocol: as §1, §2, §3

[11] = tested on: HepG2; experiment: Vacuolation phenotype by S2 (Example 2); format: cell-based, human; conditions: HepG2, 30 μM, 6 hours
Protocol: as §1, §2
(§6) After 6 hours of drug treatment, the plate was observed under a microscope with a 20× objective lens, and five fields of view were randomly selected for each well to take photos and record. If bright vacuoles with clear border appeared in the cell in the observed field of view, and at least one of the following conditions was met: 1) a cell contained at least one vacuole with a diameter greater than […]; 2) a cell contained 3 or more vacuoles with a diameter within the range of […], the cell was considered as a methuosis-positive cell (Journal of Medicinal Chemistry 2018 61 (12), 5424-5434).
(§7) CELLpositive: the number of methuosis-positive cells; CELLnormal: the number of cells with normal morphology

[12] = tested on: T98G; experiment: Vacuolation phenotype by S2 (Example 2); format: cell-based, human; conditions: 30 μM, 6 hours
Protocol: as §1, §2, §6, §7

[13] = tested on: U87MG; experiment: Vacuolation phenotype by S2 (Example 2); format: cell-based, human; conditions: 30 μM, 6 hours
Protocol: as §1, §2, §6, §7

[14] = tested on: SK-N-SH; experiment: Vacuolation phenotype by S2 (Example 2); format: cell-based, human; conditions: 30 μM, 6 hours
Protocol: as §1, §2, §6, §7

## CCOC(=O)C1=C(C)Nc2nc3c(c(N)c2C1c1ccccc1Cl)CC(C)(C)CC3 (stereo not shown) [Compound S2]
[1]
  Induction of vacuolation (FIG. 2 legend): induced vacuolation
[2]; S2 0.25 mg/kg
  Overall survival period: 32 days
  Median survival period: 32.5 days
[2]; S2 0.5 mg/kg IV
  Survival rate vs vehicle (Log-rank, FIG. 8): significantly increased the survival rate
  Tumor growth after two weeks of administration vs vehicle (FIG. 7): significant inhibitory effect on tumor growth
[2]; S2 0.5 mg/kg IV once a day for 15 days
  Growth of U87MG in situ tumors in the brain vs vehicle (growth curve, FIG. 6): significantly inhibit the growth
[2]; S2 0.5 mg/kg
  Overall survival period: 33 days
  Median survival period: 33.5 days
[2]; S2 1 mg/kg IV
  Survival rate vs vehicle (Log-rank, FIG. 8): significantly increased the survival rate
  Tumor growth after two weeks of administration vs vehicle (FIG. 7): significant inhibitory effect on tumor growth
[2]; S2 1 mg/kg IV once a day for 15 days
  Growth of U87MG in situ tumors in the brain vs vehicle (growth curve, FIG. 6): significantly inhibit the growth
[2]; S2 1 mg/kg IV, after two weeks
  Rank of inhibitory effect on tumor among S2 dose groups: strongest inhibitory effect on tumor
[2]; S2 1 mg/kg
  Overall survival period: 36 days
  Median survival period: 35 days
[2]; administration of S2 for 2 weeks, dose not given in legend
  Growth of U87MG glioma in the brain of nude mice (FIG. 7 legend): inhibited the growth of U87MG glioma
[2]; dose not given in legend
  Survival period of nude mice with orthotopically transplanted brain glioma (FIG. 8 legend): prolonged the survival period
[3]
  IC50: 7.1 µM
[4]
  IC50: 10.1 µM
[5]
  IC50: 9.4 µM
[6]
  IC50: 11.7 µM
[7]
  IC50: 14.3 µM
[8]
  IC50: 4.7 µM
[9]
  IC50: 11.4 µM
[10]
  Induction of vacuolation: can also induce vacuolation
[11]
  Induction of vacuolation: can also induce vacuolation
[12]
  Induction of vacuolation: can induce vacuolation
[13]
  Induction of vacuolation: can induce vacuolation
[14]
  Induction of vacuolation: can induce vacuolation
